Values quoted from earlier work as cited in patent US12471595B2, “Liquid pesticidal composition” (SUMITOMO CHEMICAL COMPANY, LIMITED, priority 2019, dated 2025).

Tests used:
[1] = pH7
[2] = 1-octanol/water

Compound	Water solubility at 25° C. [1]	log P at 25° C. [2]
CCOC(=O)COc1ncccc1Oc1cc(-n2c(=O)cc(C(F)(F)F)n(C)c2=O)c(F)cc1Cl [Compound A, Ethyl 2-[(3-{2-chloro-4-fluoro-5-[3-methyl-4-(trifluoromethyl)-2,6-dioxo-1,2,3,6-tetrahydropyrimidin-1(2H)-yl]phenoxy}pyridin-2-yl)oxy]acetate]	2.0 mass ppm	3.5
CC(O)(Cn1cncn1)c1ccc(Oc2ccc(Cl)cc2)cc1C(F)(F)F (stereo not shown) [Mefentrifluconazole]	0.81 mass ppm	3.4
CON(C(=O)c1cn(C)nc1C(F)F)C(C)Cc1c(Cl)cc(Cl)cc1Cl (stereo not shown) [Pydiflumetofen]	1.5 mass ppm	3.8
COC(=O)N(OC)c1ccccc1COc1ccn(-c2ccc(Cl)cc2)n1 [Pyraclostrobin]	1.9 mass ppm	4.0
Cc1nnc(Cl)c(-c2c(F)cccc2F)c1-c1ccccc1 [Pyridachlometyl]	0.6 mass ppm	4.1
